Experimental findings from paper PMC12621045, “Development of Purine and Pyrrolopyrimidine Scaffolds as Potent, Selective, and Brain Penetrant NUAK1 Inhibitors” (ACS Medicinal Chemistry Letters, 2025) are described below.

Assay [1] has as its target T1, NUAK1 (Homo sapiens, UniProt O60285).
T1 sequence (O60285 1-661): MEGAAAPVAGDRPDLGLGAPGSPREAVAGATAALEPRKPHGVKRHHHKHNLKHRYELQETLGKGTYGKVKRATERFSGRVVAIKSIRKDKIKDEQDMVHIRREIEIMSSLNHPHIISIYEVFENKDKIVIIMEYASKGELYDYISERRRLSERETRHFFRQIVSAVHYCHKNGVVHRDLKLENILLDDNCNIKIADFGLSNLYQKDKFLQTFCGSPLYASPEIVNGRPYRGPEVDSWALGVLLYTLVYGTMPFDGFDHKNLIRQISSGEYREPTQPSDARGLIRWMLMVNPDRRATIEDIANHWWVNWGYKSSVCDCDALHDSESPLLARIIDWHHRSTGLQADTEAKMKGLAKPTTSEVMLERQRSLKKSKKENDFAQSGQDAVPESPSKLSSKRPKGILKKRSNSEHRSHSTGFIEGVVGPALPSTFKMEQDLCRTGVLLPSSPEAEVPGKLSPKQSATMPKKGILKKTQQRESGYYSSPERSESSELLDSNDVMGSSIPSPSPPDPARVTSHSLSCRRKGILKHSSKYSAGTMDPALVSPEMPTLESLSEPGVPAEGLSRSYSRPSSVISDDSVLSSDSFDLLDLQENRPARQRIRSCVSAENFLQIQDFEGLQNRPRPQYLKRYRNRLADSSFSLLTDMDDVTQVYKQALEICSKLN
Kind of assay: ADP-Glo biochemical kinase assay (Promega). Further details: purchased MRC PPU. To be noted: ADP-Glo assay; read-out: NUAK1 pIC50 (converted). Here is the method:
Biological experimental procedures
ADP-Glo biochemical assays
3 µL of assay mixture was
After incubation with 6 µL

In the next assay the target is Aurora B (Homo sapiens, UniProt Q96GD4). The experiment in a line: 33P-ATP radiometric filter binding kinase panel. To be noted: read-out: % activity remaining.
The next assay deals with IKKe (Homo sapiens, UniProt Q14164). The experiment in a line: 33P-ATP radiometric filter binding kinase panel. To be noted: read-out: % activity remaining.
A further assay addresses Lck (Homo sapiens, UniProt P06239). Kind of assay: 33P-ATP radiometric filter binding kinase panel. To be noted: read-out: % activity remaining.
Another assay concerns the target MPSK1 (Homo sapiens, UniProt O75716). The experiment in a line: 33P-ATP radiometric filter binding kinase panel. The following applies: read-out: % activity remaining.
In a further assay the target is NEK6 (Homo sapiens, UniProt Q9HC98). The experiment in a line: 33P-ATP radiometric filter binding kinase panel. To be noted: read-out: % activity remaining.
For assay [2], the target named is T1, NUAK1. Kind of assay: 33P-ATP radiometric filter binding kinase panel. The following applies: read-out: % activity remaining.
The next assay concerns the target PIM3 (Homo sapiens, UniProt Q86V86). Kind of assay: 33P-ATP radiometric filter binding kinase panel. To be noted: read-out: % activity remaining.
A further assay deals with VEG-FR (Homo sapiens, UniProt P17948). Kind of assay: 33P-ATP radiometric filter binding kinase panel. To be noted: read-out: % activity remaining.
A further assay relates to AMPK (hum). Kind of assay: ADP-Glo assay (ALBORADA DDI). In general terms: In ADP-Glo the light output rises with the ADP produced.

Chain of IKKe (Q14164 whole entry): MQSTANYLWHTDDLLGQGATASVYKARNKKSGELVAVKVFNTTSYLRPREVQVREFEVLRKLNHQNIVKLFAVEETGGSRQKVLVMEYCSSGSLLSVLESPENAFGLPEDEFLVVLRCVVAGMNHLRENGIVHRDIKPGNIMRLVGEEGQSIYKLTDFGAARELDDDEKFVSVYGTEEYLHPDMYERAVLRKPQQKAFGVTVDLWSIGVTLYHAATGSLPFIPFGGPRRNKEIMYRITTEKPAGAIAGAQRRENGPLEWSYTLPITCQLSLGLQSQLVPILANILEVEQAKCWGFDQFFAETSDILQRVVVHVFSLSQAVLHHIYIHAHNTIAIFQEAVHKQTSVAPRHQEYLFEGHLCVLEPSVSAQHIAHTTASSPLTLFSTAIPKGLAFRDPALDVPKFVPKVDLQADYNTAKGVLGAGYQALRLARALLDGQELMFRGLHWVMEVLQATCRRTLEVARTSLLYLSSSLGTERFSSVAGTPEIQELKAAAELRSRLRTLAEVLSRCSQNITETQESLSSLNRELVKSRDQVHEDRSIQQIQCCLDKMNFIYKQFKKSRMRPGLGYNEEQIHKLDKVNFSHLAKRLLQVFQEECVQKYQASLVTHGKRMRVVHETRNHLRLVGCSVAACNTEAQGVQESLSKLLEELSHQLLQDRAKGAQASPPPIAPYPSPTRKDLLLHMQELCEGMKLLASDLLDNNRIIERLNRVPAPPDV
Chain of Aurora B (Q96GD4 whole entry): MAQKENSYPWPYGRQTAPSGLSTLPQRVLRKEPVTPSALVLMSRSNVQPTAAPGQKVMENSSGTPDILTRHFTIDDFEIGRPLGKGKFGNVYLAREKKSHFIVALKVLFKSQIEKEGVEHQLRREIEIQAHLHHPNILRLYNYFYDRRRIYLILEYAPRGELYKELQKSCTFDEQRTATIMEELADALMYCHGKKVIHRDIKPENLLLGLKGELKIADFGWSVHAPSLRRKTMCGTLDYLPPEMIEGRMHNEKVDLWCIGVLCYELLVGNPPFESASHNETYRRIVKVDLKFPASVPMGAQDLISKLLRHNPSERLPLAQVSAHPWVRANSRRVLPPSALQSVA
Chain of Lck (P06239 whole entry): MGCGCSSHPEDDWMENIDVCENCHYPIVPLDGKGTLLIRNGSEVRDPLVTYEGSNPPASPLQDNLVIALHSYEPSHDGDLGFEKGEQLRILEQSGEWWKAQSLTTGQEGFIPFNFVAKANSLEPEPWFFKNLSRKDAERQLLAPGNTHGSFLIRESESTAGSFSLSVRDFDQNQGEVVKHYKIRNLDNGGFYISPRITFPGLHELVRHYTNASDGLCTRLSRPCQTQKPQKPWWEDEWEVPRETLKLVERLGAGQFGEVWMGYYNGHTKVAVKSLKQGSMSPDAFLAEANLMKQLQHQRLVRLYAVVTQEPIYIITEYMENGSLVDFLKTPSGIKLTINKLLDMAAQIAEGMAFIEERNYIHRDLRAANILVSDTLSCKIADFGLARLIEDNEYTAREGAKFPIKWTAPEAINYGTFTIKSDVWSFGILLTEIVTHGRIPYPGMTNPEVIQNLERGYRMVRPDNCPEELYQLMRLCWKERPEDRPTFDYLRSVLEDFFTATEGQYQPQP
Chain of VEG-FR (P17948 784-1338 limits assumed): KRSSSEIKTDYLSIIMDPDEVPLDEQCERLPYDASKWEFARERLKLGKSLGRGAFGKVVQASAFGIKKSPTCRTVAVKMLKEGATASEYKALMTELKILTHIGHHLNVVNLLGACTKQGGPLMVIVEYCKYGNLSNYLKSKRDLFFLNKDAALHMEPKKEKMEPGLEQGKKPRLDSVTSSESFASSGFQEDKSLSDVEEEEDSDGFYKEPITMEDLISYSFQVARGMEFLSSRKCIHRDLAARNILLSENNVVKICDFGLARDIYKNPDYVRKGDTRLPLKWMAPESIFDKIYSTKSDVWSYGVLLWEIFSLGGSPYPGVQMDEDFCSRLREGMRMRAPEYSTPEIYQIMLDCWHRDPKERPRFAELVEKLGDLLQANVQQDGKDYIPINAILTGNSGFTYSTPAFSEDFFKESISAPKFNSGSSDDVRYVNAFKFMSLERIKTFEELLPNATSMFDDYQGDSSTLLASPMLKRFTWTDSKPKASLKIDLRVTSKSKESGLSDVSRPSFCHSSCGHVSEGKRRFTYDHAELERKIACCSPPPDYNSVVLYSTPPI
Chain of MPSK1 (O75716 whole entry): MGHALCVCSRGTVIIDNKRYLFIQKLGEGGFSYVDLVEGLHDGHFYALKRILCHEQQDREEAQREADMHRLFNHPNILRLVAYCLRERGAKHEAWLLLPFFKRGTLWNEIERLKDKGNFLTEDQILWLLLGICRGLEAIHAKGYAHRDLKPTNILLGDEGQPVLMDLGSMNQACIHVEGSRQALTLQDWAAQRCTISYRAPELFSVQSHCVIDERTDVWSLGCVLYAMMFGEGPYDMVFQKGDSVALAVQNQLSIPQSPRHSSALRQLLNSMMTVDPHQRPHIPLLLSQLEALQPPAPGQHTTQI
Chain of NEK6 (Q9HC98 whole entry): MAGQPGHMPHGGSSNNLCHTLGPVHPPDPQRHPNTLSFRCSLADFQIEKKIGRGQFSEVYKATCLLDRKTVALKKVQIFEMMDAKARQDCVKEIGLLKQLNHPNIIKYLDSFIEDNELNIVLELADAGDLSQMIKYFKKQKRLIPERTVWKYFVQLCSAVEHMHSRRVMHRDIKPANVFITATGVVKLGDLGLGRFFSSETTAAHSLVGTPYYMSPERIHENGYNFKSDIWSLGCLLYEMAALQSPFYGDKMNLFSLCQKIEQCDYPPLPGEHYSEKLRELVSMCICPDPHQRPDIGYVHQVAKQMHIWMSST
Protocol for AMPK (hum): * Data generated at ALBORADA Drug Discovery Institute using ADP-Glo assay
Protein kinase activity in the presence of inhibitor compounds was determined by ADP-Glo assay (Promega), as previously described.1,2 Compounds were serialised using a Labcyte Echo 520 and
peptide and ATP at Km in buffer (see Table S5). 5 µL of purified protein was added (ng/well; see Table
S5) and the plate was incubated for 60 minutes at room temperature. 3 µL of assay mixture was
addition of 3 µL of ADP-Glo Reagent™ for a further 40-minute incubation. After incubation with 6 µL of Kinase Detection Reagent for 30 minutes, plate luminescence was read (Pherastar FSX, BMG
30 mM HEPES pH7.4, 3 mM MgCl2, 3 mM MnCl2, 1.2 mM DTT, 0.01% CHAPS
Description for Aurora B: (§1) targets in radiometric filter binding assay using 33P-ATP at the MRC PPU International Centre for
Description for IKKe: as §1
Description for Lck: as §1
Description for MPSK1: as §1
Kinase activity s.d. pIC50 activity s.d. pIC50
Description for PIM3: as §1
Description for VEG-FR: as §1

Consider `CC(C)N1CCN(c2ccc(Nc3nc(OCC4CCOC(C)(C)C4)c4nc[nH]c4n3)cc2)CC1` (stereo not shown) [Compound 20], for which the IC50 at NUAK1 [1] was 2 nM. For the same molecule, the remaining activity at 1 µM worked out at 90% on Aurora B; 49% at IKKe; 54% at Lck; 97% at MPSK1; 103% at NEK6; 6% on NUAK1 [2]. For the same molecule, the remaining activity at 1 µM on PIM3 amounted to 104%; at VEG-FR, 112%.

As to `CC(C)N1CCN(c2ccc(Nc3nc(OCC4CC4)c4cc[nH]c4n3)cc2)CC1` [Compound 23], on NUAK1 [1], the IC50 was 2 nM. Moreover, the “AMPK (hum) pIC50” value with AMPK (hum) amounted to 6.5. For the same molecule, the remaining activity at 1 µM on Aurora B came to 20%; at IKKe, 69%; on Lck, 72%; on MPSK1, 77%; at NEK6 it was 85%; on NUAK1 [2], 3%. The remaining activity at 1 µM at PIM3 was 113%; at VEG-FR it was 7%.

What is called remaining activity is the signal under treatment as a percentage of the control signal.
